Reference: patent publication US9044481B2 (GlaxoSmithKline Biologicals S.A., priority 2009, dated 2015)

System: C57BL/6 female mice
Assay: Innate cytokines and chemokines in sera of vaccinated mice (SIV-p27 model, AS01B + TLR7-L liposomes)
Assay type: in vivo
Settings: for IL-6 in sera / TNF-α in sera / chemokine MCP-1 in sera: after injection, DPPC liposomes with SIV-p27 and AS01B, vs AS01B reference group
From the text: We evaluated the capacity of TLR7 ligands to promote various aspects of the immune response in mice. Innate immunity was specifically investigated to conclude whether lipidated TLR7 compounds were able to induce innate chemokines and pro-inflammatory cytokines. This innate immune response provides the body with initial, non-specific protection against pathogens. Among these innate chemokines and cytokines, type I IFN is thought to be required for the programming of naïve CD8 T-cell with respect to survival, differentiation and memory development.
10.4 ml of lipidated-TLR7-L A1 at 10 mg/ml in chloroform were transferred into a round-bottomed glass vial. To this vial were added 18.4 ml of DPPC solubilised in chloroform at 100 mg/ml. 21.9 ml of lipidated-TLR7-L compound A3 solubilized at 5 mg/ml in chloroform were transferred into a round-bottomed glass vial. To this vial were added 20 ml of DPPC solubilised in chloroform at 100 mg/ml. Chloroform was evaporated in a Büchi Rotavapor under slow decrease of pressure. The obtained film was further dessicated at least overnight in a dessicator under vacuum. After that, the lipid film was slowly hydrated on an orbital shaker (maximal speed: 250 rpm) using 50 mM PO4-100 mM NaCl, pH 7 buffer pre-heated at 60° C.
After completion of resuspension, a swelling step was carried out in order to further increase the phospholipid hydration, it consists of incubating the preparation at room temperature. The suspension was then pre-homogenized using a rotor-stator homogenizer (X620 CAT) for 12 min at 8000 rpm.
Microfluidization was then carried out using a microfluidizer (Model 110S-Serial 90181-Microfluidics Corporation) at 6 bars while keeping the microfluidization chamber at about 40° C. Sterile filtration was achieved on a PES filter (GD/X 0.2 μm, 25 mm, Whatman).
Lipidated molecules A3 and A1 were evaluated in vivo. The SIV-p27-containing formulations summarized in Table 1 were used to vaccinate 6-8 week old C57BL/6 female mice (10/group). The mice received two intramuscular injections of 50 μl, 14 days apart and were bled at different time points after prime and boost as illustrated in FIG. 1.
The innate and adaptive immune responses induced by the formulations containing the TLR7 agonists and the proprietary AS01B adjuvant (QS21+MPL) were also compared to the one induced by the corresponding AS01B-containing formulations and empty DPPC liposomes.

Compound	IL-6 in sera	TNF-α in sera	chemokine MCP-1 in sera	relative potency in enhancing inflammatory cytokines TNF-α and IL-6 (comparison of A1 and A3 in DPPC liposome formulations)
CCCCCCCCCCCCCCCC(=O)OC[C@H](COP(=O)(O)OCCN1CCC(Cn2c(O)nc3c(N)nc(OCCCC)nc32)CC1)OC(=O)CCCCCCCCCCCCCCC [Compound A1]	enhanced	enhanced	enhanced	more potent than A3
CCCCCCCCCCCCCCCC(=O)OC[C@H](COP(=O)(O)N1CCN(CCn2c(O)nc3c(N)nc(OCCCC)nc32)CC1)OC(=O)CCCCCCCCCCCCCCC [Compound A3, 6-Amino-2-butoxy-9-[1-(1,2-dipalmitoyl-sn-glycero-3-phosphoramido)-4-piperazinylethyl]-8-hydroxypurine]	enhanced	enhanced	enhanced	
